The record followed here is patent publication US12150940B2, “WASp-protecting small molecules, compositions, methods and uses thereof in the treatment of innate and acquired immune-related disorders or conditions” (BAR ILAN UNIVERSITY, priority 2016, dated 2024).

One assay relates to PBMCs. As to the kind of experiment: Lymphocyte activation in PBMCs (CD69 and activated LFA-1, flow cytometry). It counts as cell-based, human. Particulars: PBMCs stimulated with PMA and Ionomycin, vs control. The method, then: Figures show 1×10^6 PBMC cells/ml stimulated with PMA and Ionomycin that were treated with DMSO or WASp-binding SMCs. After incubation, the cells were stained with PE-Cy5™-conjugated mouse anti-human CD69 and lymphocyte activation was measured by flow-cytometry as described in the Experimental procedures. Histograms of DMSO versus SMC #6 (FIG. 8A), SMC #30 (FIG. 8B), SMC #33 (FIG. 8C), and SMC #34 (FIG. 8D) are presented and represent three independent experiments.
After incubation, the cells were stained with anti-activated LFA-1 antibody (KIM127), followed by staining with Alexa488-Fluor goat anti-mouse IgG1 secondary antibody, and lymphocyte activation was measured by flow-cytometry as described in the Experimental procedures. Histogram of negative control versus SMC #6 is presented.
PBMCs or Jurkat cells (about 3×10^5 cells) were incubated for 4 h, at 37° C. with 50 ng/ml PMA and 250 ng/ml lonomycin, or 40 ng/ml PMA and 6 μM Ionomycin, respectively, or left untreated. After incubation, the cells were collected and stained with 1 μg/ml anti-active human LFA-1 antibody (purified from KIM127 hybridoma sup, ATCC Cat #: CRL-2838, Sigma) for 30 min in 37° C., followed by staining with Alexa488-Fluor goat anti-mouse IgG1 secondary antibody (Molecular Probes, Cat #: A-21121), 30 min on ice. Cells were then co-stained with PE-Cy5™-conjugated mouse anti-human CD69 (BD Pharmingen, Cat #: 555532) to measure lymphocyte activation.
Lymphocyte activation is a hallmark of a normal immune response. To test whether treatment with WASp-binding SMCs could upregulate lymphocyte activation, freshly-isolated PBMCs were incubated with SMCs or control (solvent only) and stimulated with PMA and lonomycin. The cells were then stained with two different antibodies, which recognize two lymphocyte activation markers, CD69 and an epitope exposed at the active conformation of the integrin LFA-1 (KIM127). Both were detected by flow-cytometry.
On the technique in general: In flow cytometry, cells or beads pass a laser one at a time.

The target in a further assay is T1, WIP-WASp interaction (Homo sapiens, UniProt P42768, K230R/R34Q).
T1 construct: expressed in transfected cells
Put plainly: FRET analysis of WIP-WASp interaction in activated T-cells expressing CFP-WASp and YFP-WIP. Particulars: anti-CD3 stimulatory coverslips, fixed after 5 min; mean ± SE. It counts as cell-based. On the procedure:
FIG. 13A: Jurkat T cells stably expressing CFP-WASp and YFP-WIP were treated with WASp-binding SMC #6, SMC #30, SMC #33, SMC #34 or control. The cells were then plated on stimulatory coverslips (coated with an anti-CD3 antibody), and fixed after 5 min. Cells were imaged by confocal microscope, and FRET efficiency was measured by the donor-sensitized acceptor emission technology (see Experimental procedures for details).
FIG. 13B: graph summarizing the percentage FRET efficiency in cells plated on the stimulatory coverslips, with the indicated treatment. Data are from four independent experiments. Error bars represent the SE from the mean. P values were calculated by two-tailed Student's t-test.
Spreading assays were performed as previously described (Fried et al, 2014; Barda-Saad 2005). Briefly, T cells (2×10^6 cells/ml) were seeded on the bottom of chambered cover glasses (LabTek) that were pre-coated with anti-CD3 stimulatory monoclonal antibodies (10 μg/ml). The cells were incubated in imaging buffer [RPMI without phenol red containing 10% fetal calf serum (FCS) and 25 mM HEPES] at 37° C., 5% CO2, for the times indicated in the figure legends. Cells were fixed for 25 min with 4% paraformaldehyde in phosphate-buffered saline (PBS) and then were washed three times with PBS.
Double-color FRET was performed as described previously (Barda-Saad et al, 2005; Pauker, 2011, Pauker, 2012). […] The non-FRET components were calculated and removed with calibration curves derived from images of single-labeled cells containing CFP or YFP, as previously described (Barda-Saad et al, 2005). […] Bleed-through components were calculated as a function of the intensity of the expressed fluorescent proteins with data gathered from single-labeled cell lines. By using the intensity measured pixel by pixel through the different filter sets, as well as cross-talk elements that were isolated from the control, single-labeled cells, the measured FRET was corrected and the actual FRET efficiency at every pixel was determined. The relative FRET efficiency (FRETeff) was calculated on a pixel-by-pixel basis with the following equation: FRETeff=FRETcorr/(FRETcorr+donor)×100%, where FRETcorr is the pixel intensity in the corrected FRET image, and donor is the intensity of the corresponding pixel in the appropriate donor channel image. To increase the reliability of the calculations and to prevent low-level noise from distorting the calculated ratio, the inventors excluded pixels below 50 intensity units, as well as saturated pixels from the calculations, and set their intensities to zero. […] The FRET efficiency in the negative control system was measured and calculated in the same manner as that in the main experiment. […]

T1 sequence (P42768 whole entry R34Q/K230R): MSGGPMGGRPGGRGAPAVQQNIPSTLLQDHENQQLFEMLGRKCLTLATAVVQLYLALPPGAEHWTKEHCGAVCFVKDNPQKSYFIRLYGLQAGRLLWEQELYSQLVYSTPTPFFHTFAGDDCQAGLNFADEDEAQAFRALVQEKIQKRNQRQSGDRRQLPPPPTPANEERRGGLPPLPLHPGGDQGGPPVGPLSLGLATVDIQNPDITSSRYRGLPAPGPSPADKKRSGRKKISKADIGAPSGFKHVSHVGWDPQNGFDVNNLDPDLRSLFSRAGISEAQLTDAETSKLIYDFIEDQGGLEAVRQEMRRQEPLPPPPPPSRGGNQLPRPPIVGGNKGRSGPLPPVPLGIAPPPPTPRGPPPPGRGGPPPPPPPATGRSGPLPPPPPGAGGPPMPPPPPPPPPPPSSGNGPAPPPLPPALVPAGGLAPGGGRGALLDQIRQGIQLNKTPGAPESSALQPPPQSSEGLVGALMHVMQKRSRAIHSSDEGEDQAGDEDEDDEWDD
T1 sequence (O43516 whole entry partner): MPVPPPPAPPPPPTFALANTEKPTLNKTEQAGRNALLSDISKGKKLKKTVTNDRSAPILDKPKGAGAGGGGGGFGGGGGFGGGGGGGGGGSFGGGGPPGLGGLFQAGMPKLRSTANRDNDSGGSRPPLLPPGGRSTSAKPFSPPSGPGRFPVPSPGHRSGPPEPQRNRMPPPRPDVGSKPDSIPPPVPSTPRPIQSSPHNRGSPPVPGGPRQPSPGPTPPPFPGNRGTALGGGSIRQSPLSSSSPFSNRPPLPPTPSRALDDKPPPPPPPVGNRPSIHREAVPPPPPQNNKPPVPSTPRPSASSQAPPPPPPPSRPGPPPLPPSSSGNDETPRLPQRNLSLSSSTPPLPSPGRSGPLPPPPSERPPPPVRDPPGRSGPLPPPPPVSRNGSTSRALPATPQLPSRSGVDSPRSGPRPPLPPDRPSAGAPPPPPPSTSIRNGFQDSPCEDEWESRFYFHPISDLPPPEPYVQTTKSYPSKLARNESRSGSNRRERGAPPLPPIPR

On to `CC(=O)N[C@H]1C[C@@H](c2ccc3c(c2)nnn3C)O[C@@H](c2ccc(Cl)cc2)C1` [SMC #6, N-[(2R,4R,6S)-2-(4-chlorophenyl)-6-(1-methylbenzotriazol-5-yl)oxan-4-yl]acetamide], for which the “lymphocyte activation (CD69, activated LFA-1)” value (shortened to “lymphocyte activation”) in the assay with PBMCs is on record as “upregulation of lymphocyte activation”. For the same molecule, at WIP-WASp interaction, the “average FRET efficiency” value came out at 22.7±1.4%.
Turning to `Cc1ccccc1N(CC(=O)NCc1ccccc1)C(=O)CCC(=O)Nc1nccs1` [SMC #33, N′-[2-(benzylamino)-2-oxoethyl]-N′-(2-methylphenyl)-N-(1,3-thiazol-2-yl)butanediamide], the “lymphocyte activation” value in the assay with PBMCs was “upregulation of lymphocyte activation”. The “average FRET efficiency” value on WIP-WASp interaction is 21.4±1.4%.
Consider `CC1CCCC(C)N1C(=O)CSc1nnc(COc2cccc3cccnc23)o1` (stereo not drawn) [SMC #34, 1-(2,6-dimethylpiperidin-1-yl)-2-[[5-(quinolin-8-yloxymethyl)-1,3,4-oxadiazol-2-yl]sulfanyl]ethanone], for which the “lymphocyte activation” value with PBMCs is given as “upregulation of lymphocyte activation”. Moreover, on WIP-WASp interaction, the “average FRET efficiency” value is reported as 23.8±1.1%.
